Test results as given in the supplement of paper PMC10307832.

Experiments:
Experiment in all cases: relative viability (nuclei count vs DMSO), 5 days (fraction); higher = more cells survive
Axitinib + Dasatinib = compound: CNC(=O)c1ccccc1Sc1ccc2c(/C=C/c3ccccn3)n[nH]c2c1 [Axitinib] + Cc1nc(Nc2ncc(C(=O)Nc3c(C)cccc3Cl)s2)cc(N2CCN(CCO)CC2)n1 [Dasatinib] (partner 0.075 µM)
How it was run: (§1)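 Lung cancer cell lines were seeded in 1536-well plates and dosed by pin tool the next day, with either a single drug or a fixed anchor-drug dose combined with five library-drug doses (not always all listed) spaced in √10 steps. Five days later, one step fixed the cells and stained their nuclei (final 0.05% Triton X-100, 1% formaldehyde, 1 ug/ml Hoechst), and nuclei were counted on 4× images. Relative viability is the nuclei count in treated wells divided by the count in vehicle wells, and each value is the median of duplicate plates.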

[1] = compound: CC1=CC=C(C=C1)C(=O)CN2C3=C(CCCC3)SC2=N [Pifithrin_alpha] + O=C(c1cc(Cc2n[nH]c(=O)c3ccccc23)ccc1F)N1CCN(C(=O)C2CC2)CC1 [Olaparib] (partner 8 µM)
How it was run: as §1

Axitinib + AZD7762 = compound: CNC(=O)c1ccccc1Sc1ccc2c(/C=C/c3ccccn3)n[nH]c2c1 [Axitinib] + NC(=O)Nc1cc(-c2cccc(F)c2)sc1C(=O)N[C@H]1CCCNC1 [AZD7762] (partner 0.2 µM)
How it was run: as §1

Axitinib + Pictilisib = compound: CNC(=O)c1ccccc1Sc1ccc2c(/C=C/c3ccccn3)n[nH]c2c1 [Axitinib] + CS(=O)(=O)N1CCN(Cc2cc3nc(-c4cccc5[nH]ncc45)nc(N4CCOCC4)c3s2)CC1 [Pictilisib] (partner 1 µM)
How it was run: as §1

NCI-H1395
relative viability (Axitinib + Dasatinib; first compound 0.005 µM): 0.403
relative viability (Axitinib + Dasatinib; first compound 0.01581 µM): 0.425
relative viability (Axitinib + Dasatinib; first compound 0.05 µM): 0.39
relative viability (Axitinib + Dasatinib; first compound 0.1581 µM): 0.404
relative viability (Axitinib + Dasatinib; first compound 0.5 µM): 0.397
relative viability ([1]; first compound 3.162 µM): 0.443
relative viability ([1]; first compound 10 µM): 0.442
relative viability ([1]; first compound 100 µM): 0.432
relative viability (Axitinib + AZD7762; first compound 0.005 µM): 0.4
relative viability (Axitinib + AZD7762; first compound 0.01581 µM): 0.378
relative viability (Axitinib + AZD7762; first compound 0.05 µM): 0.386
relative viability (Axitinib + AZD7762; first compound 0.1581 µM): 0.405
relative viability (Axitinib + AZD7762; first compound 0.5 µM): 0.386
relative viability (Axitinib + Pictilisib; first compound 0.005 µM): 0.612
relative viability (Axitinib + Pictilisib; first compound 0.01581 µM): 0.559
relative viability (Axitinib + Pictilisib; first compound 0.05 µM): 0.634
relative viability (Axitinib + Pictilisib; first compound 0.1581 µM): 0.528
relative viability (Axitinib + Pictilisib; first compound 0.5 µM): 0.684

NCI-H1437
relative viability (Axitinib + Dasatinib; first compound 0.005 µM): 0.396
relative viability (Axitinib + Dasatinib; first compound 0.01581 µM): 0.388
relative viability (Axitinib + Dasatinib; first compound 0.05 µM): 0.448
relative viability (Axitinib + Dasatinib; first compound 0.1581 µM): 0.388
relative viability (Axitinib + Dasatinib; first compound 0.5 µM): 0.442
relative viability ([1]; first compound 1 µM): 0.681
relative viability ([1]; first compound 3.162 µM): 0.604
relative viability ([1]; first compound 10 µM): 0.521
relative viability ([1]; first compound 31.62 µM): 0.383
relative viability ([1]; first compound 100 µM): 0.277
relative viability (Axitinib + AZD7762; first compound 0.005 µM): 1.14
relative viability (Axitinib + AZD7762; first compound 0.01581 µM): 1.13
relative viability (Axitinib + AZD7762; first compound 0.05 µM): 1.07
relative viability (Axitinib + AZD7762; first compound 0.1581 µM): 1.08
relative viability (Axitinib + AZD7762; first compound 0.5 µM): 1.03
relative viability (Axitinib + Pictilisib; first compound 0.005 µM): 0.437
relative viability (Axitinib + Pictilisib; first compound 0.01581 µM): 0.399
relative viability (Axitinib + Pictilisib; first compound 0.05 µM): 0.459
relative viability (Axitinib + Pictilisib; first compound 0.1581 µM): 0.418
relative viability (Axitinib + Pictilisib; first compound 0.5 µM): 0.402

NCI-H1651
relative viability (Axitinib + Dasatinib; first compound 0.005 µM): 0.482
relative viability (Axitinib + Dasatinib; first compound 0.01581 µM): 0.396
relative viability (Axitinib + Dasatinib; first compound 0.05 µM): 0.409
relative viability (Axitinib + Dasatinib; first compound 0.1581 µM): 0.404
relative viability (Axitinib + Dasatinib; first compound 0.5 µM): 0.502
relative viability ([1]; first compound 1 µM): 0.184
relative viability ([1]; first compound 3.162 µM): 0.191
relative viability ([1]; first compound 10 µM): 0.173
relative viability ([1]; first compound 31.62 µM): 0.143
relative viability ([1]; first compound 100 µM): 0.194
relative viability (Axitinib + AZD7762; first compound 0.005 µM): 0.466
relative viability (Axitinib + AZD7762; first compound 0.01581 µM): 0.416
relative viability (Axitinib + AZD7762; first compound 0.05 µM): 0.481
relative viability (Axitinib + AZD7762; first compound 0.1581 µM): 0.467
relative viability (Axitinib + AZD7762; first compound 0.5 µM): 0.533
relative viability (Axitinib + Pictilisib; first compound 0.005 µM): 0.631
relative viability (Axitinib + Pictilisib; first compound 0.01581 µM): 0.503
relative viability (Axitinib + Pictilisib; first compound 0.05 µM): 0.665
relative viability (Axitinib + Pictilisib; first compound 0.1581 µM): 0.576
relative viability (Axitinib + Pictilisib; first compound 0.5 µM): 0.567

NCI-H1666
relative viability (Axitinib + Dasatinib; first compound 0.005 µM): 0.836
relative viability (Axitinib + Dasatinib; first compound 0.01581 µM): 0.838
relative viability (Axitinib + Dasatinib; first compound 0.05 µM): 0.825
relative viability (Axitinib + Dasatinib; first compound 0.1581 µM): 0.88
relative viability (Axitinib + Dasatinib; first compound 0.5 µM): 0.829
relative viability ([1]; first compound 1 µM): 0.72
relative viability ([1]; first compound 3.162 µM): 0.673
relative viability ([1]; first compound 10 µM): 0.657
relative viability ([1]; first compound 31.62 µM): 0.641
relative viability ([1]; first compound 100 µM): 0.648
relative viability (Axitinib + AZD7762; first compound 0.005 µM): 0.836
relative viability (Axitinib + AZD7762; first compound 0.01581 µM): 0.816
relative viability (Axitinib + AZD7762; first compound 0.05 µM): 0.879
relative viability (Axitinib + AZD7762; first compound 0.1581 µM): 0.865
relative viability (Axitinib + AZD7762; first compound 0.5 µM): 0.84
relative viability (Axitinib + Pictilisib; first compound 0.005 µM): 0.414
relative viability (Axitinib + Pictilisib; first compound 0.01581 µM): 0.459
relative viability (Axitinib + Pictilisib; first compound 0.05 µM): 0.433
relative viability (Axitinib + Pictilisib; first compound 0.1581 µM): 0.512
relative viability (Axitinib + Pictilisib; first compound 0.5 µM): 0.584
